Laboratory results as given in US11007183B2, “Cancer treatments using combinations of PI3K/Akt pathway and ERK inhibitors” (BIOMED VALLEY DISCOVERIES, INC., priority 2013, dated 2021).
“Also recorded” adds a separate entry of the source.

Tests used:
[1] = tested on: HCT116 PIK3CA (+/−); experiment: Single agent proliferation assay (CellTiter-Glo, 72 h); type: cell-based, human; settings: Homo sapiens, HCT-116, 72 h
Experimental: Cells were seeded in 96-well plates at the densities and media conditions indicated in Table 11 in McCoy's 5A containing either 10% FBS or 1% charcoal-stripped FBS (CS-FBS), and allowed to adhere overnight prior to addition of compound or vehicle control. […] The final DMSO concentration was constant at 0.1%. Test compounds were incubated with the cells for 72 h at 37° C., 5% CO2 in a humidified atmosphere. CellTiter-Glo® reagent (Promega, Madison, Wis.) was added according to manufacturer's instructions and luminescence detected using the BMG FLUOstar plate reader (BMG Labtech, Ortenberg, Germany). The average media only background value was deducted and the data analysed using a 4-parameter logistic equation in GraphPad Prism (GraphPad Software, La Jolla, Calif.).

[2] = tested on: MAPK signaling in A375 cells; experiment: Western blot of MAPK signaling, cell cycle and apoptosis markers; type: cell-based, human
Experimental: (§1) For Western blot studies, HCT116 cells (5×10^6) were seeded into 10 cm dishes in McCoy's 5A plus 10% FBS. A375 cells (2.5×10^6) were seeded into 10 cm dishes in DMEM plus 10% FBS. Cells were allowed to adhere overnight prior to addition of the indicated amount of test compound (BVD-523) or vehicle control. Cells were treated for either 4 or 24 hours before isolation of whole-cell protein lysates, as specified below. Cells were harvested by trypsinisation, pelleted and snap frozen. Lysates were prepared with RIPA (Radio-Immunoprecipitation Assay) buffer, clarified by centrifugation and quantitated by bicinchoninic acid assay (BCA) assay. 20-50 μg of protein was resolved by SDS-PAGE electrophoresis, blotted onto PVDF membrane and probed using the antibodies detailed in Table 9 (for the 4-hour treatment) and Table 10 (for the 24-hour treatment) below.

[3] = tested on: parental HCT116 cells; experiment: Combination proliferation assay (Loewe/Bliss); type: cell-based; settings: Homo sapiens, HCT-116, 2.5% serum, mean of n=4 separate combinations, read-out: IC50 (single agent, derived from combination assay plates)
Experimental: Cells were seeded into triplicate 96-well plates at the densities indicated in Table 11 in McCoy's 5A media containing 2.5% FBS and allowed to adhere overnight prior to addition of test compound or vehicle control. Combinations were tested using either a 10×8 or for the follow-up HCT116 study a 3×1 dose matrix.
Test compounds were incubated with the cells for 72 h at 37° C., 5% CO2 in a humidified atmosphere. CellTiter-Glo® reagent (Promega, Madison, Wis.) was added according to manufacturer's instructions and luminescence detected using the BMG FLUOstar plate reader (BMG Labtech, Ortenberg, Germany). The average media only background value was deducted and the data analysed.
For the 10×8 combination assays the combination interactions across the dose matrix were determined by the Loewe Additivity and Bliss independence models using Chalice™ Combination Analysis Software (Horizon Discovery Group, Cambridge, Mass.) as outlined in the user manual (available at chalice.horizondiscovery.com/chalice-portal/documentation/analyzer/home.jsp). Synergy is determined by comparing the experimentally observed level of inhibition at each combination point with the value expected for additivity, which is derived from the single-agent responses along the edges of the matrix. […]

[4] = tested on: HCT116 PIK3CA (+/−) cells; experiment: Combination proliferation assay (Loewe/Bliss); type: cell-based, human; settings: 2.5% serum
Experimental: Test compounds were incubated with the cells for 72 h at 37° C., 5% CO2 in a humidified atmosphere. CellTiter-Glo® reagent (Promega, Madison, Wis.) was added according to manufacturer's instructions and luminescence detected using the BMG FLUOstar plate reader (BMG Labtech, Ortenberg, Germany). The average media only background value was deducted and the data analysed. For the 10×8 combination assays the combination interactions across the dose matrix were determined by the Loewe Additivity and Bliss independence models using ChaliceTM Combination Analysis Software (Horizon Discovery Group, Cambridge, Mass.) as outlined in the user manual (available at chalice.horizondiscovery.com/chalice-portal/documentation/analyzer/home.jsp). Synergy is determined by comparing the experimentally observed level of inhibition at each combination point with the value expected for additivity, which is derived from the single-agent responses along the edges of the matrix. Potential synergistic interactions were identified by displaying the calculated excess inhibition over that predicted as being additive across the dose matrix as a heat map, and by reporting a quantitative 'Synergy Score' based on the Loewe model. The single agent data derived from the combination assay plates were presented as dose-response curves generated in GraphPad Prism (GraphPad Software, La Jolla, Calif.) (plotted using percentage viability relative to DMSO only treated controls). […] (Cbliss is the fractional inhibition that would be expected if the combination of the two drugs were exactly additive). Cbliss values were then subtracted from the experimentally observed fractional inhibition values to give an 'excess over Bliss' value which were plotted as heat maps±SD.

[5] = tested on: MAPK signaling in HCT-116 cells; experiment: Western blot of MAPK signaling markers; type: cell-based, human; settings: HCT116 KRAS mutant cell line, 4 hours, micromolar concentrations
Experimental: as §1

[6] = A375, prolonged (24 hours) treatment

## CC(C)Nc1cc(-c2c[nH]c(C(=O)N[C@H](CO)c3cccc(Cl)c3)c2)c(Cl)cn1 [BVD-523]
[1]; 1% CS-FBS
  IC50: 10 nM
[1]; 10% FBS
  IC50: 120 nM
[2]; 24 hours (prolonged) treatment
  cyclin-D1 protein level: greatly reduced
[2]; 24 hours (prolonged) treatment, BRAF mutant cells
  MAPK feedback phosphatase DUSP6 protein level: greatly reduced
[2]; [6]
  Apoptosis / PARP cleavage: PARP protein cleavage and increased apoptosis were not noted; also recorded: increased apoptosis was not observed
  Bim-EL level: increased
[2]; A375 BRAF mutant cell line, 4 hours, micromolar concentrations
  Phosphorylation of ERK-dependent residues (T359/S363) in RSK 1 and 2: reduced
[2]; RAF and RAS mutant cancer cells in-vitro, acute and prolonged treatment
  Concentrations required to induce changes in substrate phosphorylation and effector targets of ERK kinases: low micromolar range
[2]; acute or prolonged treatment
  Cellular ERK enzyme activity: fully inhibited
[3]
  IC50: 130 nM
[4]; HCT116 line lacking the PIK3CA mutation vs parental
  Single agent sensitivity relative to the parental line: more sensitive
[4]; Homo sapiens, HCT-116, HCT116 PIK3CA (+/−), mean of n=4 separate combinations, read-out: IC50 (single agent, derived from combination assay plates)
  IC50: 40 nM
[5]
  Phosphorylation of ERK-dependent residues (T359/S363) in RSK 1 and 2: reduced
